According to patent US6849612B2, “Oligonucleotide modulation of cell adhesion” (ISIS Pharmaceuticals, Inc., priority 1993, dated 2005):
Strand notation (5' to 3'): a small letter for the sugar, then the base; units joined by * are phosphorothioate-linked, units joined directly phosphodiester-linked; [ ] holds rarer units or linkages, { } end groups; capitals alone tell only the bases. d = 2'-deoxy (DNA)

Experiments:
[1] = test system: leukocyte migration; assay: Leukocyte migration into carrageenan-soaked sponges in mice; format: in vivo, mouse; conditions: 3 mg/kg oral, after surgery, 6-8 hours later and at 21 hours; vs vehicle control
[2] = test system: ICAM-1; assay: ELISA screening for ICAM-1 expression in interleukin-1β-stimulated cells (HUVEC and A549); format: cell-based, human; conditions: interleukin-1β-stimulated cells, two cell lines (HUVEC, A549)
[3] = test system: ICAM-1; assay: ELISA of ICAM-1 expression in A431 cells; format: cell-based; conditions: human epidermal carcinoma A431 cells
Protocol: (§1) Expression of ICAM-1, VCAM-1 and ELAM-1 on the surface of cells can be quantitated using specific monoclonal antibodies in an ELISA. Cells are grown to confluence in 96 well microtiter plates. The cells are stimulated with either interleukin-1 or tumor necrosis factor for 4 to 8 hours to quantitate ELAM-1 and 8 to 24 hours to quantitate ICAM-1 and VCAM-1. Following the appropriate incubation time with the cytokine, the cells are gently washed three times with a buffered isotonic solution containing calcium and magnesium such as Dulbecco's phosphate buffered saline (D-PBS). The cells are then directly fixed on the microtiter plate with 1 to 2% paraformaldehyde diluted in D-PBS for 20 minutes at 25° C. The cells are washed again with D-PBS three times. Nonspecific binding sites on the microtiter plate are blocked with 2% bovine serum albumin in D-PBS for 1 hour at 37° C. Cells are incubated with the appropriate monoclonal antibody diluted in blocking solution for 1 hour at 37° C. Unbound antibody is removed by washing the cells three times with D-PBS. Antibody bound to the cells is detected by incubation with a 1:1000 dilution of biotinylated goat anti-mouse IgG (Bethesda Research Laboratories, Gaithersburg, Md.) in blocking solution for 1 hour at 37° C. Cells are washed three times with D-PBS and then incubated with a 1:1000 dilution of streptavidin conjugated to β-galactosidase (Bethesda Research Laboratories) for 1 hour at 37° C. The cells are washed three times with D-PBS for 5 minutes each. The amount of β-galactosidase bound to the specific monoclonal antibody is determined by developing the plate in a solution of 3.3 mM chlorophenolred-β-D-galactopyranoside, 50 mM sodium phosphate, 1.5 mM MgCl2; pH=7.2 for 2 to 15 minutes at 37° C. The concentration of the product is determined by measuring the absorbance at 575 nm in an ELISA microtiter plate reader. […]
(§2) Cells grown in 96-well plates were washed three times with Opti-MEM (GIBCO, Grand Island, N.Y.) prewarmed to 37° C. […] ICAM-1 expression was determined as described in Example 1. […]

[4] = test system: ICAM-1; assay: ELISA of ICAM-1 expression in primary human keratinocytes; format: cell-based
Protocol: as §1, §2

[5] = test system: ICAM-1; assay: ELISA of ICAM-1 cell surface expression in C8161 human melanoma cells; format: cell-based; conditions: 15 μg/ml Lipofectin, 5 ng/ml TNF-α 16 hours
Protocol: (§3) ICAM-1 expression on the cell surface was measured by ELISA. Cells were treated with increasing concentrations of antisense oligonucleotides in the presence of 15 μg/ml Lipofectin for 4 hours at 37° C. ICAM-1 expression was induced by incubation with 5 ng/ml TNF-α for 16 hours. Cells were washed 3× in DPBS and fixed for 20 minutes in 2% formaldehyde. Cells were washed in DPBS, blocked with 2% BSA for 1 hour at 37° C. and incubated with ICAM-1 monoclonal antibody 84H10 (AMAC, Inc., Westbrook, Me.). Detection of bound antibody was determined by incubation with a biotinylated goat anti-mouse IgG followed by incubation with […] streptavidin and developed with chlorophenol red-β-D-galactopyranoside and quantified by absorbance at 575 nm. ICAM-1 mRNA levels were measured by Northern blot analysis.
The data were expressed as percentage of control activity, calculated as follows: (ICAM-1 expression for oligonucleotide-treated, cytokine-induced cells)−(basal ICAM-1 expression)/(ICAM-1 cytokine-induced expression)−(basal ICAM-1 expression)×100.

[6] = test system: ICAM-1 mRNA; assay: Northern blot of ICAM-1 mRNA in C8161 cells; format: cell-based, human; conditions: Northern blot analysis
Protocol: as §3

[7] = test system: C8161 human melanoma cells; assay: Experimental metastasis assay of oligonucleotide-treated C8161 cells in athymic nude mice; format: in vivo
Protocol: To evaluate the role of ICAM-1 in metastasis, experimental metastasis assays were performed by injecting 1×10^5 C8161 cells into the lateral tail vein of athymic nude mice. […] Assoc. Cancer Res. 1990, 13, 353].
After 4 weeks, mice were sacrificed, organs were fixed in Bouin's fixative and metastatic lesions on lungs were scored with the aid of a dissecting microscope. Four-week-old female athymic nude mice (Harlan Sprague Dawley) were used. Animals were maintained under the guidelines of the NIH. Groups of 4-8 mice each were tested in experimental metastasis assays.
Treatment of C8161 cells with antisense oligonucleotides ISIS 1570 and ISIS 2302, complementary to ICAM-1, was performed in the presence of the cationic lipid, Lipofectin (Gibco/BRL, Gaithersburg, Md.). Antisense oligonucleotides were synthesized as described in Example 3. Cells were seeded in 60 mm tissue culture dishes at 10^6 cells/ml and incubated at 37 °C for 3 days, washed with OPTI-MEM (Gibco/BRL) 3 times and 100 μl of OPTI-MEM medium was added to each well. 0.5 μM oligonucleotide and 15 μg/ml lipofectin were mixed at room temperature for 15 minutes. 25 μl of the oligonucleotide-lipofectin mixture was added to the appropriate dishes and incubated at 37° C. for 4 hours. The oligonucleotide-lipofectin mixture was removed and replaced with DME-F12 medium containing 10% fetal calf serum. After 4 hours, 500 U/ml TNF-α was added to the appropriate wells and incubated for 18 hours at which time cells were removed from the plates, counted and injected into athymic nude mice.

[8] = test system: human corneal donor buttons; assay: Human corneal donor buttons stored in OPTISOL with ISIS 2302
Protocol: Eleven human corneal donor buttons were stored in TM OPTISOL™ for 8 days and used as the control group. Additional corneal buttons were used for the experimental group and were stored in OPTISOL™ with either 200 μg/ml ISIS 2302 (n=10) or 400 μg/ml ISIS 2302 (n=8). Endothelial cell density was evaluated by specular microscopy. After 8 days, all corneas were prepared for SEM and photographs were taken of endothelial and epithelial surfaces.

Row | Compound | reduction in mean leukocyte count [1] | inhibition of ICAM-1 expression, relative activity in words [2] | inhibition of ICAM-1 expression [3] | inhibition of ICAM-1 expression [4] | cell surface expression of ICAM-1 [5] | ICAM-1 mRNA levels [6] | No. Lung Metastases per Mouse (Mean ± S.E.M.) ([7]; C8161 cells treated with 0.5 μM oligonucleotide + Lipofectin + TNF-α, Lipofectin + TNF-α 81 ± 8) | No. Lung Metastases per Mouse (Mean ± S.E.M.) ([7]; C8161 cells treated with 0.5 μM oligonucleotide + Lipofectin, no TNF-α, Lipofectin only 64 ± 13) | toxicity to stored human corneas [8] | endothelial cell density by specular microscopy ([8]; 200 or 400 μg/ml in OPTISOL, after 2 or 8 days of storage, vs control)
1 | COc1ccc2c(c1)c(CC(=O)O)c(C)n2C(=O)c1ccc(Cl)cc1 [indomethacin] | 79% |  |  |  |  |  |  |  |  | 
2 | ISIS 2302: P=S, human ICAM-1 3′-Untranslated (2114-2133), SEQ ID NO 22 (antisense dG*dC*dC*dC*dA*dA*dG*dC*dT*dG*dG*dC*dA*dT*dC*dC*dG*dT*dC*dA) |  | most active of the series, with activity comparable to that of ISIS 1939 | inhibit ICAM-1 expression | inhibit ICAM-1 expression | decreased cell surface expression of ICAM-1 | markedly reduced | 31 ± 8 | 23 ± 6 | not markedly toxic | no difference in endothelial cell density
